# Tested on: Spontaneously hypertensive rats
# Experiment: Blood pressure lowering activity, tail cuff method
# Assay type: in vivo
# Method: Blood Pressure Lowering Activity
# Systolic blood pressures were recorded by a modification of the tail cuff method described by I.M. Claxton, M.G. Palfreyman, R.H. Poyser, R.L. Whiting, European Journal of Pharmacology, 37, 179 (1976). A W+W BP recorder, model 8005 was used to display pulses. Prior to all measurements rats were placed in a heated environment (33.5 ± 0.5°C) before transfer to a restraining cage. Each determination of blood pressure was the mean of at least 6 readings. Spontaneously hypertensive rats (ages 12-18 weeks) with systolic blood pressures >180 mmHg were considered hypertensive.
structure (smiles),measurement,setting,value
"Cc1ccc2c(c1)C(N1CCCC1=O)=CC(C)(C)S2(=O)=O [Example 2, 4-(2-Oxopyrrolidin-1-yl)-2,2,6-trimethyl-2H-1-benzothiapyran-1,1-dioxide]",% Change in Systolic Blood Pressure,"dose 10 mg/kg, 1 hour post dose",-50 ± 2 (n=5) %
same,% Change in Systolic Blood Pressure,"dose 10 mg/kg, 2 hours post dose",-34 ± 4 (n=5) %
same,% Change in Systolic Blood Pressure,"dose 10 mg/kg, 4 hours post dose",-22 ± 3 (n=4) %
same,% Change in Systolic Blood Pressure,"dose 10 mg/kg, 6 hours post dose",-15 ± 2 (n=4) %
"Cc1ccc2c(c1)[C@@H](N1CCCCC1=O)[C@H](O)C(C)(C)S2(=O)=O (relative stereo) [Example 3, Trans 3.4-dihydro-4-(2-oxopiperidin-1-yl)-2,2,6-trimethyl-2H-1-benzothiapyran-3-ol-1,1-dioxide]",% Change in Systolic Blood Pressure,"dose 30 mg/kg, 1 hour post dose",-25 (n=2) %
same,% Change in Systolic Blood Pressure,"dose 30 mg/kg, 2 hours post dose",-31 ± 7 (n=3) %
same,% Change in Systolic Blood Pressure,"dose 30 mg/kg, 4 hours post dose",-16 ± 2 (n=3) %
same,% Change in Systolic Blood Pressure,"dose 30 mg/kg, 6 hours post dose",-14 ± 3 (n=3) %
"Cc1ccc2c(c1)C(N1CCCCC1=O)[C@H](O)C(C)(C)S2 (stereo partly drawn) [Example 1, Trans 3,4-Dihydro-4-(2-oxopiperidin-1-yl)-2,2,6-trimethyl-2H-1-benzothiapyran-3-ol]",% Change in Systolic Blood Pressure,"dose 1 mg/kg, 1 hour post dose",-22 ± 5 (n=6) %
same,% Change in Systolic Blood Pressure,"dose 1 mg/kg, 2 hours post dose",-17 ± 6 (n=6) %
same,% Change in Systolic Blood Pressure,"dose 1 mg/kg, 4 hours post dose",-12 ± 11 (n=6) %
